The target in data set [1] is T1, human amylin receptor (amylin 3(a) receptor: human calcitonin receptor + RAMP-3) (Homo sapiens, UniProt O60896+P30988).
T1 construct: expressed in transfected cells; host or cells: BHK570
T1 sequence (P30988 25-474): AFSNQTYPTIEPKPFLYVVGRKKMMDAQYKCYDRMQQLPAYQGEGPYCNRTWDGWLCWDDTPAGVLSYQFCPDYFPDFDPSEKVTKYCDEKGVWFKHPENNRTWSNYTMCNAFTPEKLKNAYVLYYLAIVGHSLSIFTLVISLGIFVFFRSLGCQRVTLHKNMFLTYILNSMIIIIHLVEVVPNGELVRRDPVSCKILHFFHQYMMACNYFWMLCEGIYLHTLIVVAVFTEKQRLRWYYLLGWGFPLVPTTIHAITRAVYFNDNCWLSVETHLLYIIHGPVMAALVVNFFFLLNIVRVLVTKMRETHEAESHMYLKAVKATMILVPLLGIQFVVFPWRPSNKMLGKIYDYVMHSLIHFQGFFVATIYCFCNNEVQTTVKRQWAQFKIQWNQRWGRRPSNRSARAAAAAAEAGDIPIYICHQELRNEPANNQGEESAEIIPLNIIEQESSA
T1 sequence (O60896 24-148 partner): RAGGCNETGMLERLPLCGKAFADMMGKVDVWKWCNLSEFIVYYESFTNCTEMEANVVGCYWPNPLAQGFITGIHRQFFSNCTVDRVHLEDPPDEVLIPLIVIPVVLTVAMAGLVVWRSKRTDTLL
Nature of the data set: Assay (II)a functional CRE-luciferase assay, human amylin receptor. It counts as cell-based. To be noted: Table 2; BHK amylin 3(a)-receptor/CRE-luc cells.

Data set [2] concerns the target T2, human calcitonin receptor (Homo sapiens, UniProt P30988).
T2 construct: expressed in transfected cells; host or cells: BHK570
T2 sequence (P30988 25-474): T1 sequence (P30988 25-474)
The experiment in a line: Assay (II)a functional CRE-luciferase assay, human calcitonin receptor. In kind it is cell-based. The conditions noted are these: Table 7; human calcitonin (CTa) receptor.

The nature of data set [3]: Assay (III) ThT fibrillation assay for physical stability. It counts as physicochemical. To be noted: ThT fibrillation assay. In short, it runs like this: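 Freshly prepared formulations, pH-adjusted, with 1 μM ThT; four or eight replicates incubated at 37 °C under 960 rpm orbital shaking. Fluorescence (ex 444/em 485 nm) read every 20 min; […]. Peptide concentration measured by RP-HPLC before and after the run.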

Data set [4] in a line: Assay (IV) determination of solubility. It counts as physicochemical. The procedure, abridged: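 Polypeptide in water (~500 nmol/ml stock) was mixed 1:1 with 100 mM buffers from pH 3.0 to 8.0 (glycylglycine pH 3.0–5.0; bistrispropane pH 6.0–8.0). After 18 hours at room temperature, samples were centrifuged and the polypeptide remaining in solution was quantified by HPLC.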

Where [5] appears, read: bistrispropane buffer, pH 6, pH 6.0, read-out: Solubility pH 6.0.
Setting [6] is: bistrispropane buffer, pH 6.5, pH 6.5, read-out: Solubility pH 6.5.
Setting [7] is: bistrispropane buffer, pH 7, pH 7.0, 18 hours at room temperature, Table 3, read-out: Solubility pH 7.0.
[8] abbreviates: bistrispropane buffer, pH 7, pH 7.0, read-out: Solubility pH 7.0.
Setting [9] is: bistrispropane buffer, pH 7.5, pH 7.5, read-out: Solubility pH 7.5.
[10] abbreviates: bistrispropane buffer, pH 8, pH 8.0, read-out: Solubility pH 8.0.
[11] abbreviates: glycylglycine buffer, pH 3, pH 3.0, read-out: Solubility pH 3.0.
Setting [12] is: glycylglycine buffer, pH 4, pH 4.0, 18 hours at room temperature, Table 2, read-out: Solubility pH 4.0.
Setting [13] is: glycylglycine buffer, pH 4, pH 4.0, read-out: Solubility pH 4.0.
Where [14] appears, read: glycylglycine buffer, pH 5, pH 5.0, read-out: Solubility pH 5.0.

The text below walks through data of patent US8722849B2, “Polypeptides” (Novo Nordisk A/S, priority 2011, dated 2014).

Structures are written as SMILES. In brackets after ≈: the same amount, converted by molar mass. Like-named read-outs stand apart in the source and are kept apart here. Starred links: 1 amine or outer side, 2 acyl side, 3 side chain; linkers in the order of their positions; H or OH if unused. Positions of bridges follow the written chain, without caps; N, C: chain ends. Residues, ends and D or L forms follow the SMILES beside them. *: point of attachment. C20 diacid = O=C(O)CCCCCCCCCCCCCCCCCCC(=O)*; γGlu = O=C(O)[C@H](CCC(=O)[*:2])N[*:1]

As for `CC[C@H](C)[C@H](NC(=O)[C@@H]1CCCN1C(=O)CNC(=O)[C@H](Cc1ccccc1)NC(=O)[C@H](CC(N)=O)NC(=O)[C@H](CCC(N)=O)NC(=O)[C@H](CO)NC(=O)[C@H](CO)NC(=O)[C@H](Cc1c[nH]cn1)NC(=O)[C@H](Cc1c[nH]cn1)NC(=O)[C@H](CC(C)C)NC(=O)[C@H](Cc1ccccc1)NC(=O)[C@H](CCC(=O)O)NC(=O)[C@H](C)NC(=O)[C@H](CC(C)C)NC(=O)[C@H](CCCNC(=N)N)NC(=O)[C@H](CCC(N)=O)NC(=O)[C@@H](NC(=O)[C@H](C)NC(=O)[C@@H]1CSSC[C@H](NC(=O)[C@H](CCCCN)NC(=O)[C@H](CCC(=O)O)NC(=O)CC[C@H](NC(=O)CCCCCCCCCCCCCCCCCCC(=O)O)C(=O)O)C(=O)N[C@@H](CC(N)=O)C(=O)N[C@@H]([C@@H](C)O)C(=O)N[C@@H](C)C(=O)N[C@@H]([C@@H](C)O)C(=O)N1)[C@@H](C)O)C(=O)N[C@@H](CC(C)C)C(=O)N1CCC[C@H]1C(=O)N1CCC[C@H]1C(=O)N[C@H](C(=O)N[C@@H](CC(N)=O)C(=O)N[C@H](C(=O)NCC(=O)N[C@@H](CO)C(=O)N[C@@H](Cc1c[nH]cn1)C(=O)N[C@H](C(=O)N[C@@H](Cc1ccc(O)cc1)C(N)=O)[C@@H](C)O)C(C)C)[C@@H](C)O` [Example 129, N-alpha-[(S)-4-Carboxy-4-(19-carboxynonadecanoylamino)butyryl]-Glu-[Glu14,His17,Gln21,His35]-pramlintide] ({C20 diacid-γGlu}-EKCNTATCATQRLAEFLHHSSQNFGPILPPTNVGSHTY-NH2; disulfide 3-8 (inferred); C-terminus assumed), the EC50 stood at 391 pM in data set [1] and 248 pM in data set [2]. In data set [3], the “ThT pH 4.0 lag time (h)” value is on record as 24 h. For the same molecule, the solubility at 18 h in data set [4] (setting [5]) was greater than 200 µM; in data set [4] (setting [6]), 194 µM (≈ 897 µg/mL); in data set [4] (setting [7]), greater than 200 µM; in data set [4] (setting [8]), greater than 200 µM; in data set [4] (setting [9]), greater than 200 µM; in data set [4] (setting [10]) it was greater than 200 µM. Further, the solubility at 18 h in data set [4] (setting [11]), in data set [4] (setting [12]), in data set [4] (setting [13]) and in data set [4] (setting [14]) was greater than 200 µM throughout.

Regarding `CC[C@H](C)[C@H](NC(=O)[C@@H]1CCCN1C(=O)CNC(=O)[C@H](Cc1ccccc1)NC(=O)[C@H](CC(N)=O)NC(=O)[C@H](CC(N)=O)NC(=O)[C@H](CO)NC(=O)[C@H](CO)NC(=O)[C@H](Cc1c[nH]cn1)NC(=O)[C@H](Cc1c[nH]cn1)NC(=O)[C@H](CC(C)C)NC(=O)[C@H](Cc1ccccc1)NC(=O)[C@H](CCC(=O)O)NC(=O)[C@H](C)NC(=O)[C@H](CC(C)C)NC(=O)[C@H](CCCNC(=N)N)NC(=O)[C@H](CCC(N)=O)NC(=O)[C@@H](NC(=O)[C@H](C)NC(=O)[C@@H]1CSSC[C@H](NC(=O)[C@H](Cc2c[nH]cn2)NC(=O)[C@H](Cc2c[nH]cn2)NC(=O)[C@H](Cc2c[nH]cn2)NC(=O)CC[C@H](NC(=O)CCCCCCCCCCCCCCCCCCC(=O)O)C(=O)O)C(=O)N[C@@H](CC(N)=O)C(=O)N[C@@H]([C@@H](C)O)C(=O)N[C@@H](C)C(=O)N[C@@H]([C@@H](C)O)C(=O)N1)[C@@H](C)O)C(=O)N[C@@H](CC(C)C)C(=O)N1CCC[C@H]1C(=O)N[C@@H](Cc1c[nH]cn1)C(=O)N[C@H](C(=O)N[C@@H](CC(N)=O)C(=O)N[C@H](C(=O)NCC(=O)N[C@@H](CO)C(=O)N[C@@H](Cc1c[nH]cn1)C(=O)N[C@H](C(=O)N[C@@H](Cc1ccc(O)cc1)C(N)=O)[C@@H](C)O)C(C)C)[C@@H](C)O` [Example 34, N-alpha-[(S)-4-Carboxy-4-(19-carboxynonadecanoylamino)butyryl]-His-His-[His1,Glu14,His17,His29,His35]-pramlintide] ({C20 diacid-γGlu}-HHHCNTATCATQRLAEFLHHSSNNFGPILPHTNVGSHTY-NH2; disulfide 4-9 (inferred)), the EC50 in data set [1] came to 272 pM; in data set [2] it was 198 pM. In addition, the “ThT pH 4.0 lag time (h)” value in data set [3] came out at 13 h. Further, the solubility at 18 h in data set [4] (18 h, pH 7, read-out: Solubility pH 7.0) is 0 µM; in data set [4] (18 h, pH 7.5, read-out: Solubility pH 7.5) it was 0 µM; in data set [4] (pH 3, Solubility pH 3.0), greater than 200 µM; in data set [4] (pH 4, Solubility pH 4.0) it was greater than 200 µM; in data set [4] (pH 4, Solubility pH 4.0 (μM)) it was greater than 200 µM; in data set [4] (pH 5, Solubility pH 5.0), greater than 200 µM. Besides, the solubility at 18 h in data set [4] (pH 6, Solubility pH 6.0) was greater than 200 µM; in data set [4] (pH 6.5, Solubility pH 6.5), 4 µM (≈ 19.2 µg/mL); in data set [4] (pH 8, Solubility pH 8.0), 13 µM (≈ 62.4 µg/mL).

Regarding `CC[C@H](C)[C@H](NC(=O)[C@@H]1CCCN1C(=O)CNC(=O)[C@H](Cc1ccccc1)NC(=O)[C@H](CC(N)=O)NC(=O)[C@H](CC(N)=O)NC(=O)[C@H](CO)NC(=O)[C@H](CO)NC(=O)[C@H](CCCNC(=N)N)NC(=O)[C@@H](NC(=O)[C@H](CC(C)C)NC(=O)[C@H](Cc1ccccc1)NC(=O)[C@H](CCC(=O)O)NC(=O)[C@H](C)NC(=O)[C@H](CC(C)C)NC(=O)[C@H](CCCNC(=N)N)NC(=O)[C@H](CCC(N)=O)NC(=O)[C@@H](NC(=O)[C@H](C)NC(=O)[C@@H]1CSSC[C@H](NC(=O)[C@H](Cc2c[nH]cn2)NC(=O)CC[C@H](NC(=O)CCCCCCCCCCCCCCCCCCC(=O)O)C(=O)O)C(=O)N[C@@H](CC(N)=O)C(=O)N[C@@H]([C@@H](C)O)C(=O)N[C@@H](C)C(=O)N[C@@H]([C@@H](C)O)C(=O)N1)[C@@H](C)O)C(C)C)C(=O)N[C@@H](CC(C)C)C(=O)N1CCC[C@H]1C(=O)N1CCC[C@H]1C(=O)N[C@H](C(=O)N[C@@H](CC(N)=O)C(=O)N[C@H](C(=O)NCC(=O)N[C@@H](CO)C(=O)N[C@@H](CC(N)=O)C(=O)N[C@H](C(=O)N1CCC[C@H]1C(N)=O)[C@@H](C)O)C(C)C)[C@@H](C)O` [Example 143, N-alpha-[(S)-4-Carboxy-4-(19-carboxynonadecanoylamino)butyryl]-[His1,Glu14,Arg18,Pro37]-pramlintide] ({C20 diacid-γGlu}-HCNTATCATQRLAEFLVRSSNNFGPILPPTNVGSNTP-NH2; disulfide 2-7 (inferred)), the EC50 worked out at 41.5 pM in data set [1] and 22 pM in data set [2]. Moreover, the “ThT pH 4.0 lag time (h)” value in data set [3] amounted to 6 h. For the same molecule, the solubility at 18 h in data set [4] (setting [5]) was 75 µM (≈ 329 µg/mL); in data set [4] (setting [6]) it was 122 µM (≈ 534 µg/mL); in data set [4] (setting [7]), 165 µM (≈ 723 µg/mL); in data set [4] (setting [8]) it was 165 µM (≈ 723 µg/mL); in data set [4] (setting [9]), greater than 200 µM; in data set [4] (setting [10]), greater than 200 µM. Besides, the solubility at 18 h in data set [4] (setting [11]), in data set [4] (setting [12]), in data set [4] (setting [13]) and in data set [4] (setting [14]) was greater than 200 µM each time.

By EC50 is commonly meant the concentration giving half of the maximal effect. A word on the solubility: it is how much of the substance goes into solution per volume.
